Results on two compounds are retold here after patent US11596644B2, “Method for treating post-prandial hypoglycemia” (AVOLYNT, priority 2018, dated 2023).

One assay concerns the target T1, rat SGLT2 (Rattus norvegicus, UniProt P53792).
T1 construct: expressed in transfected cells; host or cells: COS-7
T1 sequence (P53792 1-670): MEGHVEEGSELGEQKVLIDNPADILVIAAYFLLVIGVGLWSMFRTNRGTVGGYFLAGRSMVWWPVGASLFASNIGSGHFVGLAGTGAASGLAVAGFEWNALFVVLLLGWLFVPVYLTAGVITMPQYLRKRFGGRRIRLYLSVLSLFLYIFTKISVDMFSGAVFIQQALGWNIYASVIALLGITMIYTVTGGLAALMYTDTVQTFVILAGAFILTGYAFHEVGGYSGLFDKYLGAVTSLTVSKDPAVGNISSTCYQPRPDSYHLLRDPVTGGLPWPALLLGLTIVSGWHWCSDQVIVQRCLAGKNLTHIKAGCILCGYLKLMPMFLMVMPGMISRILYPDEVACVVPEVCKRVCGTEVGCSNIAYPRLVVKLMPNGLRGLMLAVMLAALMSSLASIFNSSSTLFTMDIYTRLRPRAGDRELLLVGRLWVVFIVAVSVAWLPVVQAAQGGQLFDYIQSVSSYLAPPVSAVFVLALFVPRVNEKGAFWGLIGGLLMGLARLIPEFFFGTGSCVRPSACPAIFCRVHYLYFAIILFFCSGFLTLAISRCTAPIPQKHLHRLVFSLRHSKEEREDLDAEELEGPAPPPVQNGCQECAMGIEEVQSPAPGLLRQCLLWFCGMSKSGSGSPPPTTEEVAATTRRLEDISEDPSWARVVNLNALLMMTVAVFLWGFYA
Kind of assay: Inhibition of radiolabeled α-MG uptake into COS-7 cells transfected with rat SGLT2 (Dixon plot). It is filed as cell-based. The note with it: α-MG 0.3 and 1 mM. Here is the method:
Selective inhibition study. Inhibition constants (Ki) of mizagliflozin for rat and human SGLT1 and SGLT2 were determined measuring concentration-dependent effects of test compound on uptake of radiolabeled methyl-α-D-glucopyranoside (α-MG) into COS-7 cells transiently transfected with cloned SGLT1 or SGLT2. Mizagliflozin was assessed at concentrations from 1 to 30 μM and 3 to 100 μM for human and rat SGLT2, respectively. It was assessed at concentrations from 30 nM to 1 μM and 10 to 30 nM for human and rat SGLT1, respectively. α-MG test concentrations were 0.3 and 1 mM. Data were analyzed and Ki determined using Dixon plots of initial transport rates. […] Inhibition constants were also determined for human SGLT1 and SGLT2.

Assay [1] has as its system normal Sprague Dawley rats. The assay can be described thus: Mixed carbohydrate tolerance test in normal rats. The assay is classed as in vivo, rat. As to the method:
Study on normal rats. The efficacy of mizagliflozin (decreasing plasma glucose levels) in normal Sprague Dawley rats was determined in a mixed carbohydrate tolerance test. Normal rats were fasted for 16 hours and then given an oral loading dose of 2.0 g/kg of mixed carbohydrate (soluble starch:sucrose:lactose monohydrate=6:3:1). Mizagliflozin (KGA-3235 sebacate), or water as the vehicle control, was then administered as a single oral dose to groups of male rats (n=8/group) at doses of 0.03, 0.1, 0.3, and 1 mg/kg. Voglibose, a glucosidase inhibitor similar to acarbose, was used as a positive control and was administered as a single oral dose to male rats (n=8/group) at dose levels of 0.1, 0.3 and 1 mg/kg. Blood samples were collected just prior to loading with mixed carbohydrate and at 0.5, 1, 2, 3, 4, and 6 hours after loading.

In assay [2] the test system is STZ-induced diabetic rats. Kind of assay: Mixed carbohydrate tolerance test in STZ-induced diabetic rats (Example 3). The assay is classed as in vivo, rat. The note with it: mixed carbohydrate 2.0 g/kg. As to the method:
Study in diabetic rats. Mizagliflozin was tested in a rat model for diabetes and efficacy, as measured by a relative decrease in plasma glucose, was determined using a mixed carbohydrate tolerance test. Diabetic model rats were prepared by intravenous administration of streptozotocin (STZ) to induce diabetes. Seven days after STZ administration, rats were fasted for 16 hours and then given an oral loading dose of 2.0 g/kg of mixed carbohydrate (soluble starch:sucrose:lactose monohydrate=6:3:1). Mizagliflozin, or water as the vehicle control, was then administered as a single oral dose to groups of male rats (n=8/group) at doses of 0.01, 0.03, 0.1, and 0.3 mg/kg. Another control group was given vehicle and consisted of normal male Sprague Dawley rats that were not administered STZ. Voglibose was also administered as a single oral dose to male rats (n=8/group) at dose levels of 0.03, 0.1 and 0.3 mg/kg. Blood samples were collected just prior to loading with mixed carbohydrate and at 0.5, 1, 2, 3, 4, and 6 hours after loading. Plasma glucose concentrations were determined and ΔAUC0-1 h for plasma glucose was calculated.

The subject of assay [3] is STZ-induced diabetic rats. The assay can be described thus: Oral glucose tolerance test in STZ-induced diabetic rats (Example 4). It is filed as in vivo, rat. Here is the method:
Study in diabetic rats using oral glucose tolerance test. Efficacy of mizagliflozin was tested in a rat model for diabetes using an oral glucose tolerance test (OGTT). Diabetic model rats were prepared by intravenous administration of STZ to induce diabetes. Seven days after STZ administration, rats were fasted for 16 hours and then given an oral loading dose of 2.0 g/kg of glucose. Mizagliflozin, or water as the vehicle control, was then administered as a single oral dose to groups of male rats (n=8/group) at doses of 0.03, 0.1, 0.3, and 1 mg/kg. Another control group was given vehicle and consisted of normal male Sprague Dawley rats that were not administrated STZ. Voglibose was also administered as a single oral dose to male rats (n=8/group) at dose levels of 0.1, 0.3 and 1 mg/kg. Blood samples were collected just prior to loading with mixed carbohydrate and at 0.5, 1, 2, 3, 4, and 6 hours after loading. Plasma glucose concentrations were determined and ΔAUC0-1 h for plasma glucose was calculated.

Consider `O=C(CCc1ccc(O)cc1)c1c(O)cc(O)cc1O[C@@H]1O[C@H](CO)[C@@H](O)[C@H](O)[C@H]1O` [phlorizin, reference compound], for which the inhibitory constant (Ki) (usually a dissociation constant, usually derived from enzyme kinetics or from competition with a known ligand) on rat SGLT2 stood at 0.0411 µM. In other words, the double-digit nanomolar range.

`OCC(CO)N[C@H]1C[C@](O)(CO)[C@@H](O)[C@H](O)[C@H]1O` [voglibose, reference compound]: the ED50 in assay [1] (Rattus norvegicus, read-out: ED50 calculated from mean ΔAUC0-1 h (% of control), mixed carbohydrate 2.0 g/kg, single oral dose) is 0.32 mg/kg. The “ΔAUC0-1 h of plasma glucose versus vehicle control” value in assay [1] (mixed carbohydrate 2.0 g/kg), in assay [2] and in assay [3] (glucose 2.0 g/kg) was “significant decrease” throughout. In assay [3] (OGTT, maximum dose 1 mg/kg), the “ΔAUC0-1 h relative to control group” value is recorded as “not half or less than half that in the control group”.
